Tested on: HSSY-II tumor spheroid viability
Test: Anticancer human tumor HSSY-II cell line growth inhibition;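 also: spheroids exposed to compounds for seven days before reading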;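 as to viability, T/C: percent of DMSO vehicle control viability so 100% = untreated level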
Conditions: spheroids with HUVEC and MSC; for IC50: curve of first compound; for viability, T/C: stronger effect = lower value
In short: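 Single agents and combinations were tested on spheroids built from tumor cells plus HUVEC and hMSC, at half-log dilutions starting at or near clinical Cmax, else 10 microM; final DMSO 0.25% (v/v).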

[1] = second compound 1 µM, first compound 0.0949 µM
[2] = second compound 1 µM, first compound 0.3 µM
[3] = second compound 1 µM, first compound 0.949 µM
[4] = second compound 1 µM, first compound 3 µM
[5] = second compound 3.16 µM, first compound 0.0949 µM
[6] = second compound 3.16 µM, first compound 0.3 µM
[7] = second compound 3.16 µM, first compound 0.949 µM
[8] = second compound 3.16 µM, first compound 3 µM
[9] = second compound 10 µM, first compound 0.0949 µM
[10] = second compound 10 µM, first compound 0.3 µM
[11] = second compound 10 µM, first compound 0.949 µM
[12] = second compound 10 µM, first compound 3 µM
[13] = second compound 31.6 µM, first compound 0.0949 µM
[14] = second compound 31.6 µM, first compound 0.3 µM
[15] = second compound 31.6 µM, first compound 0.949 µM
[16] = second compound 31.6 µM, first compound 3 µM
[17] = second compound 100 µM, first compound 0.0949 µM
[18] = second compound 100 µM, first compound 0.3 µM
[19] = second compound 100 µM, first compound 0.949 µM
[20] = second compound 100 µM, first compound 3 µM

CC(C)n1c(=O)n(C)c2cnc3cc(F)c(-c4ccc(OCCCN5CCCCC5)nc4)cc3c21 + CC[C@@]1(O)C(=O)OCc2c1cc1n(c2=O)Cc2cc3c(CN(C)C)c(O)ccc3nc2-1
IC50 (second compound 0.003 µM): < 31.6 nM | IC50 (second compound 0.00949 µM): < 31.6 nM | IC50 (second compound 0.03 µM): < 31.6 nM | IC50 (second compound 0.0949 µM): < 31.6 nM | IC50 (second compound 0.3 µM): < 31.6 nM | viability, T/C (second compound 0.003 µM, first compound 0.0316 µM): 48% | viability, T/C (second compound 0.003 µM, first compound 0.1 µM): 45.2% | viability, T/C (second compound 0.003 µM, first compound 0.316 µM): 51.9% | viability, T/C (second compound 0.003 µM, first compound 1 µM): 40.6% | viability, T/C (second compound 0.003 µM, first compound 3.16 µM): 14% | viability, T/C (second compound 0.003 µM, first compound 10 µM): 10.2% | viability, T/C (second compound 0.00949 µM, first compound 0.0316 µM): 15% | viability, T/C (second compound 0.00949 µM, first compound 0.1 µM): 14.7% | viability, T/C (second compound 0.00949 µM, first compound 0.316 µM): 14.3% | viability, T/C (second compound 0.00949 µM, first compound 1 µM): 13% | viability, T/C (second compound 0.00949 µM, first compound 3.16 µM): 9.79% | viability, T/C (second compound 0.00949 µM, first compound 10 µM): 7.58% | viability, T/C (second compound 0.03 µM, first compound 0.0316 µM): 10.1% | viability, T/C (second compound 0.03 µM, first compound 0.1 µM): 9.85% | viability, T/C (second compound 0.03 µM, first compound 0.316 µM): 9.61% | viability, T/C (second compound 0.03 µM, first compound 1 µM): 7.8% | viability, T/C (second compound 0.03 µM, first compound 3.16 µM): 4.59% | viability, T/C (second compound 0.03 µM, first compound 10 µM): 2.72% | viability, T/C (second compound 0.0949 µM, first compound 0.0316 µM): 9.24% | viability, T/C (second compound 0.0949 µM, first compound 0.1 µM): 8.61% | viability, T/C (second compound 0.0949 µM, first compound 0.316 µM): 8.35% | viability, T/C (second compound 0.0949 µM, first compound 1 µM): 6.09% | viability, T/C (second compound 0.0949 µM, first compound 3.16 µM): 4.16% | viability, T/C (second compound 0.0949 µM, first compound 10 µM): 2.59% | viability, T/C (second compound 0.3 µM, first compound 0.0316 µM): 6.62% | viability, T/C (second compound 0.3 µM, first compound 0.1 µM): 6.23% | viability, T/C (second compound 0.3 µM, first compound 0.316 µM): 5.88% | viability, T/C (second compound 0.3 µM, first compound 1 µM): 5.84% | viability, T/C (second compound 0.3 µM, first compound 3.16 µM): 4.56% | viability, T/C (second compound 0.3 µM, first compound 10 µM): 3.48%

O=C(c1cc(Cc2n[nH]c(=O)c3ccccc23)ccc1F)N1CCN(C(=O)C2CC2)CC1 + Cn1nnc2c(C(N)=O)ncn2c1=O
IC50 (second compound 1 µM): 6100 nM | IC50 (second compound 3.16 µM): 3280 nM | IC50 (second compound 10 µM): 2480 nM | IC50 (second compound 31.6 µM): 751 nM | IC50 (second compound 100 µM): < 94.9 nM | viability, T/C [1]: 98% | viability, T/C [2]: 93.6% | viability, T/C [3]: 84.2% | viability, T/C [4]: 63.6% | viability, T/C (second compound 1 µM, first compound 9.49 µM): 23.9% | viability, T/C (second compound 1 µM, first compound 30 µM): 59.1% | viability, T/C [5]: 94.9% | viability, T/C [6]: 92.5% | viability, T/C [7]: 81.9% | viability, T/C [8]: 54.8% | viability, T/C (second compound 3.16 µM, first compound 9.49 µM): 20.1% | viability, T/C (second compound 3.16 µM, first compound 30 µM): 43.3% | viability, T/C [9]: 99.6% | viability, T/C [10]: 93.3% | viability, T/C [11]: 81.3% | viability, T/C [12]: 46.5% | viability, T/C (second compound 10 µM, first compound 9.49 µM): 12% | viability, T/C (second compound 10 µM, first compound 30 µM): 56.4% | viability, T/C [13]: 95.5% | viability, T/C [14]: 78.5% | viability, T/C [15]: 44% | viability, T/C [16]: 14% | viability, T/C (second compound 31.6 µM, first compound 9.49 µM): 11.3% | viability, T/C (second compound 31.6 µM, first compound 30 µM): 9.62% | viability, T/C [17]: 43.4% | viability, T/C [18]: 25.2% | viability, T/C [19]: 10.7% | viability, T/C [20]: 10.1% | viability, T/C (second compound 100 µM, first compound 9.49 µM): 8.27% | viability, T/C (second compound 100 µM, first compound 30 µM): 9.08%

Cn1ncnc1[C@H]1c2n[nH]c(=O)c3cc(F)cc(c23)N[C@@H]1c1ccc(F)cc1 + Cn1nnc2c(C(N)=O)ncn2c1=O
IC50 (second compound 1 µM): 88.1 nM | IC50 (second compound 3.16 µM): 41.7 nM | IC50 (second compound 10 µM): 21.1 nM | IC50 (second compound 31.6 µM): < 9.49 nM | IC50 (second compound 100 µM): < 9.49 nM | viability, T/C (second compound 1 µM, first compound 0.00949 µM): 86.8% | viability, T/C (second compound 1 µM, first compound 0.03 µM): 68.6% | viability, T/C [1]: 52.6% | viability, T/C [2]: 20.8% | viability, T/C [3]: 10.8% | viability, T/C [4]: 6.39% | viability, T/C (second compound 3.16 µM, first compound 0.00949 µM): 83% | viability, T/C (second compound 3.16 µM, first compound 0.03 µM): 50.1% | viability, T/C [5]: 45.6% | viability, T/C [6]: 15.5% | viability, T/C [7]: 9.89% | viability, T/C [8]: 8.35% | viability, T/C (second compound 10 µM, first compound 0.00949 µM): 70.3% | viability, T/C (second compound 10 µM, first compound 0.03 µM): 41.2% | viability, T/C [9]: 15.4% | viability, T/C [10]: 10.5% | viability, T/C [11]: 8.29% | viability, T/C [12]: 6.47% | viability, T/C (second compound 31.6 µM, first compound 0.00949 µM): 20.1% | viability, T/C (second compound 31.6 µM, first compound 0.03 µM): 10.9% | viability, T/C [13]: 9.75% | viability, T/C [14]: 8.55% | viability, T/C [15]: 7.6% | viability, T/C [16]: 4.67% | viability, T/C (second compound 100 µM, first compound 0.00949 µM): 8.89% | viability, T/C (second compound 100 µM, first compound 0.03 µM): 7.52% | viability, T/C [17]: 8.61% | viability, T/C [18]: 7.59% | viability, T/C [19]: 6.58% | viability, T/C [20]: 5.25%

— PubChem BioAssay AID1845204 (Molecular Pharmacology Branch, DTP, NCI, 2023)
